Measured values published in the supplement of paper PMC10307832.

Columns and labels:
Experiment in all cases: relative viability (nuclei count vs DMSO), 5 days (fraction); higher = more cells survive
GSK-J4 = compound: CCOC(=O)CCNc1cc(N2CCc3ccccc3CC2)nc(-c2ccccn2)n1 [GSK-J4]
Procedure, shortened: (§1)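 Following overnight incubation at 37 °C, lung cancer cell lines in 1536-well plates were pinned with five library-drug doses (not always all listed) in √10 steps on vehicle-anchored plates. The cells then spent 5 days without medium change before a combined fix, permeabilisation and Hoechst stain, 4× imaging and MetaXpress nuclear counts. Viability is the treated-to-vehicle ratio of nuclei, taken as the median across plates. Only plates with control CV below 25% and at least one doubling passed.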

AZ3146 = compound: CN1CCC(CC1)OC2=CC(=C(C=C2)NC3=NC=C4C(=N3)N(C(=O)N4C)C5CCCC5)OC [AZ3146]
Procedure, shortened: as §1

GSK-J4 + Navitoclax = compound: CCOC(=O)CCNc1cc(N2CCc3ccccc3CC2)nc(-c2ccccn2)n1 [GSK-J4] + CC1(C)CCC(c2ccc(Cl)cc2)=C(CN2CCN(c3ccc(C(=O)NS(=O)(=O)c4ccc(N[C@H](CCN5CCOCC5)CSc5ccccc5)c(S(=O)(=O)C(F)(F)F)c4)cc3)CC2)C1 [Navitoclax] (partner 0.5 µM)
Procedure, shortened: (§2)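 Medians of duplicate plates are given as relative viability. That measure is the nuclei count in treated wells divided by the count in vehicle wells. Counts were taken on 4× images of lung cancer cell lines in 1536-well plates, 5 days after pin-tool dosing the day after seeding with one drug alone or a fixed anchor-drug dose plus five library-drug doses (not always all listed) in √10 steps.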

GSK-J4 + Foretinib = compound: CCOC(=O)CCNc1cc(N2CCc3ccccc3CC2)nc(-c2ccccn2)n1 [GSK-J4] + COc1cc2c(Oc3ccc(NC(=O)C4(C(=O)Nc5ccc(F)cc5)CC4)cc3F)ccnc2cc1OCCCN1CCOCC1 [Foretinib] (partner 0.25 µM)
Procedure, shortened: as §2

Row | Cell Line | relative viability (GSK-J4; 0.5 µM) | relative viability (GSK-J4; 1.581 µM) | relative viability (GSK-J4; 15.81 µM) | relative viability (GSK-J4; 50 µM) | relative viability (AZ3146; 0.08 µM) | relative viability (AZ3146; 0.253 µM) | relative viability (AZ3146; 0.8 µM) | relative viability (AZ3146; 2.53 µM) | relative viability (AZ3146; 8 µM) | relative viability (GSK-J4 + Navitoclax; first compound 0.5 µM) | relative viability (GSK-J4 + Navitoclax; first compound 1.581 µM) | relative viability (GSK-J4 + Navitoclax; first compound 15.81 µM) | relative viability (GSK-J4 + Navitoclax; first compound 50 µM) | relative viability (GSK-J4 + Foretinib; first compound 0.5 µM) | relative viability (GSK-J4 + Foretinib; first compound 1.581 µM) | relative viability (GSK-J4 + Foretinib; first compound 5 µM) | relative viability (GSK-J4 + Foretinib; first compound 15.81 µM) | relative viability (GSK-J4 + Foretinib; first compound 50 µM) | relative viability (GSK-J4 + Navitoclax; first compound 5 µM) | relative viability (GSK-J4; 5 µM)
1 | NCI-H1975 | 0.972 | 0.857 | 0.953 | 1.09 | 0.859 | 0.993 | 1.06 | 1.02 | 0.844 | 1.05 | 1.11 | 1.04 | 1.15 | 0.947 | 0.785 | 0.732 | 0.95 | 1.04 |  | 
2 | LU99A | 0.819 | 0.872 | 0.884 | 0.756 | 0.783 | 1.04 | 0.989 | 0.964 | 1.11 | 0.788 | 0.746 | 0.814 | 0.633 | 0.731 | 0.78 |  | 0.809 | 0.523 | 0.852 | 
3 | NCI-H1755 | 0.969 | 0.847 | 0.929 | 0.916 | 0.933 | 1.02 | 0.955 | 0.994 | 0.984 | 0.978 | 0.888 | 0.955 | 0.96 | 0.906 | 0.817 | 0.861 | 0.878 | 0.837 | 0.975 | 0.728
4 | LOU-NH91 | 1.12 | 1.03 | 0.868 | 0.952 | 1.01 | 0.935 | 0.957 | 0.986 | 0.96 | 0.733 | 0.743 | 0.571 | 0.764 | 0.963 | 0.925 | 0.789 | 0.893 | 0.918 | 0.577 | 0.724
5 | SW 1573 | 0.926 | 0.96 | 0.949 | 0.756 | 0.994 | 1.04 | 0.991 | 0.959 | 0.68 | 0.941 | 1.1 | 0.823 | 0.705 | 0.846 | 0.69 | 0.751 | 0.776 | 0.764 | 0.951 | 0.851
6 | CAL-12T | 0.94 | 0.838 | 0.93 | 0.834 | 1.03 | 0.978 | 1.07 | 1.09 | 0.776 | 1.2 | 1.17 | 1.16 | 1.21 | 1.11 | 0.703 | 1.11 | 1.04 | 1.02 | 1.47 | 1.05
7 | NCI-H1734 | 0.9 | 0.909 | 0.765 | 0.807 | 0.96 | 1.09 | 0.954 | 1.04 | 0.98 | 0.83 | 0.736 | 0.734 | 0.632 | 0.821 | 0.787 | 0.849 | 0.707 | 0.619 | 0.694 | 0.686
8 | LCLC-97TM1 | 0.865 | 0.753 | 0.608 | 0.755 | 0.836 | 1.01 | 0.932 | 1.1 | 0.751 |  |  | 0.178 | 0.307 | 0.972 | 0.953 | 0.909 | 0.856 | 0.561 | 0.43 | 1.05
9 | BEN | 1.06 | 0.864 | 0.876 | 0.788 |  | 0.898 | 0.886 | 0.989 | 0.943 | 0.0769 | 0.0597 | 0.0496 | 0.042 | 0.857 | 0.593 |  | 0.588 | 0.53 |  | 
10 | EBC-1 | 0.817 | 0.892 | 0.961 | 0.668 | 0.915 | 0.938 | 0.884 | 0.979 | 0.602 | 0.367 | 0.4 | 0.4 | 0.264 | 0.0939 | 0.0899 | 0.0897 | 0.0966 | 0.103 | 0.356 | 0.96
11 | COR-L23 | 0.965 | 0.894 | 1 | 0.852 | 0.928 | 1.03 | 1.03 | 0.974 | 0.977 | 0.886 | 1.02 | 0.929 | 0.956 | 0.927 | 0.901 |  | 0.897 | 0.822 |  | 
12 | NCI-H2009 | 0.951 | 0.89 | 0.966 | 0.545 | 0.928 | 0.997 | 1.03 | 1.02 | 0.713 | 1.14 | 1.12 | 1.14 | 0.882 | 1.17 | 1.19 |  | 1.2 | 0.986 | 0.951 | 0.733
13 | ChaGo-K-1 | 0.986 |  | 0.974 | 0.918 | 0.942 | 0.885 | 0.964 | 1.04 | 0.741 | 1.09 |  | 1.03 | 0.895 | 0.995 | 0.907 | 0.971 | 0.895 | 0.72 | 1.02 | 0.993
14 | NCI-H2023 | 0.942 | 0.853 | 0.906 | 0.856 | 0.935 | 0.912 | 0.969 | 0.871 | 0.296 | 0.921 | 0.976 | 0.991 | 0.915 | 0.759 | 0.737 | 1.11 | 0.735 | 0.709 | 1.08 | 1.07
15 | NCI-H2405 | 1.07 | 0.945 | 0.943 | 0.987 | 1.08 | 0.87 | 0.999 | 1.12 | 1.11 | 0.835 | 0.848 | 0.952 | 0.928 | 1.06 | 0.948 |  | 0.98 | 1.04 |  | 
16 | EPLC-272H | 0.994 | 0.678 | 0.814 | 0.734 | 0.789 | 0.895 | 0.92 | 0.992 | 0.969 | 1.14 |  | 0.979 | 1.02 | 0.723 | 0.547 | 0.819 | 0.514 | 0.26 | 1.21 | 0.93
17 | NCI-H322M | 1.05 | 1.04 | 0.839 | 0.818 | 0.872 | 0.927 | 0.823 | 0.958 | 0.827 | 1.18 | 1.18 | 1.05 | 1.17 | 1.01 | 0.884 | 1.27 | 0.815 | 0.712 | 1.29 | 1.1
